ChEMBL document CHEMBL3046015, “Structure-dependent phytotoxicity of catechins and other flavonoids: flavonoid conversions by cell-free protein extracts of Centaurea maculosa (spotted knapweed) roots” (J Agric Food Chem, 2003)
The source made the active and inactive calls. The calls are words filed in the database; no cut-off is given here.

How the values were obtained:
Centaurea diffusa [1] = test: Phytotoxicity in Centaurea diffusa assessed as inhibition of shoot differentiation at 250 ug/mL measured on day 14 relative to untreated control; type: functional, organism-based
Bassia scoparia [2] = test: Phytotoxicity in Bassia scoparia assessed as inhibition of seed germination at 250 ug/mL measured on day 14 relative to untreated control; type: functional, organism-based
[3] = system: Linaria genistifolia subsp. dalmatica; test: Phytotoxicity in Linaria genistifolia subsp. dalmatica assessed as inhibition of shoot differentiation at 250 ug/mL measured on day 14 relative to untreated control; type: functional, organism-based
Bassia scoparia [4] = test: Phytotoxicity in Bassia scoparia assessed as inhibition of shoot differentiation at 250 ug/mL measured on day 14 relative to untreated control; type: functional, organism-based
Bassia scoparia [5] = test: Phytotoxicity in Bassia scoparia assessed as inhibition of root differentiation at 250 ug/mL measured on day 14 relative to untreated control; type: functional, organism-based
Centaurea diffusa [6] = test: Phytotoxicity in Centaurea diffusa assessed as inhibition of root differentiation at 250 ug/mL measured on day 14 relative to untreated control; type: functional, organism-based
Centaurea maculosa [7] = test: Phytotoxicity in Centaurea maculosa assessed as inhibition of shoot differentiation at 250 ug/mL measured on day 14 relative to untreated control; type: functional, organism-based
Centaurea maculosa [8] = test: Phytotoxicity in Centaurea maculosa assessed as inhibition of seed germination at 250 ug/mL measured on day 14 relative to untreated control; type: functional, organism-based
[9] = system: Linaria genistifolia subsp. dalmatica; test: Phytotoxicity in Linaria genistifolia subsp. dalmatica assessed as inhibition of seed germination at 250 ug/mL measured on day 14 relative to untreated control; type: functional, organism-based
Centaurea diffusa [10] = test: Phytotoxicity in Centaurea diffusa assessed as inhibition of seed germination at 250 ug/mL measured on day 14 relative to untreated control; type: functional, organism-based
[11] = system: Linaria genistifolia subsp. dalmatica; test: Phytotoxicity in Linaria genistifolia subsp. dalmatica assessed as inhibition of root differentiation at 250 ug/mL measured on day 14 relative to untreated control; type: functional, organism-based
Centaurea maculosa [12] = test: Phytotoxicity in Centaurea maculosa assessed as inhibition of root differentiation at 250 ug/mL measured on day 14 relative to untreated control; type: functional, organism-based
Triticum aestivum [13] = test: Phytotoxicity in Triticum aestivum (wheat) assessed as inhibition of seed germination at 250 ug/mL measured on day 14 relative to untreated control; type: organism-based; conditions: in vivo
[14] = system: Linaria genistifolia subsp. dalmatica; test: Phytotoxicity in Linaria genistifolia subsp. dalmatica assessed as increase in mortality at 50 ug/mL measured on day 14 relative to untreated control; type: functional, organism-based
Centaurea diffusa [15] = test: Phytotoxicity in Centaurea diffusa assessed as increase in mortality at 50 ug/mL measured on day 14 relative to untreated control; type: functional, organism-based
Bassia scoparia [16] = test: Phytotoxicity in Bassia scoparia assessed as inhibition of seed germination at 50 ug/mL measured on day 14 relative to untreated control; type: functional, organism-based
Centaurea maculosa [17] = test: Phytotoxicity in Centaurea maculosa assessed as inhibition of seed germination at 50 ug/mL measured on day 14 relative to untreated control; type: functional, organism-based
[18] = system: Linaria genistifolia subsp. dalmatica; test: Phytotoxicity in Linaria genistifolia subsp. dalmatica assessed as inhibition of seed germination at 50 ug/mL measured on day 14 relative to untreated control; type: functional, organism-based
Triticum aestivum [19] = test: Phytotoxicity in Triticum aestivum (wheat) assessed as inhibition of seed germination at 50 ug/mL measured on day 14 relative to untreated control; type: functional, organism-based
Bassia scoparia [20] = test: Phytotoxicity in Bassia scoparia assessed as increase in mortality at 50 ug/mL measured on day 14 relative to untreated control; type: functional, organism-based
Solanum lycopersicum [21] = test: Phytotoxicity in Solanum lycopersicum (tomato) assessed as increase in mortality at 50 ug/mL measured on day 14 relative to untreated control; type: organism-based; conditions: in vivo
Triticum aestivum [22] = test: Phytotoxicity in Triticum aestivum (wheat) assessed as increase in mortality at 50 ug/mL measured on day 14 relative to untreated control; type: functional, organism-based
Centaurea maculosa [23] = test: Phytotoxicity in Centaurea maculosa assessed as increase in mortality at 50 ug/mL measured on day 14 relative to untreated control; type: functional, organism-based
Centaurea diffusa [24] = test: Phytotoxicity in Centaurea diffusa assessed as inhibition of seed germination at 50 ug/mL measured on day 14 relative to untreated control; type: functional, organism-based
Centaurea maculosa [25] = test: Phytotoxicity in Centaurea maculosa assessed as increase in mortality at 250 ug/mL measured on day 14 relative to untreated control; type: functional, organism-based
Solanum lycopersicum [26] = test: Phytotoxicity in Solanum lycopersicum (tomato) assessed as increase in mortality at 250 ug/mL measured on day 14 relative to untreated control; type: organism-based; conditions: in vivo
Arabidopsis thaliana = test: Phytotoxicity in Arabidopsis thaliana assessed as increase in mortality at 250 ug/mL measured on day 14 relative to untreated control; type: organism-based; conditions: in vivo
Bassia scoparia [27] = test: Phytotoxicity in Bassia scoparia assessed as increase in mortality at 250 ug/mL measured on day 14 relative to untreated control; type: functional, organism-based
[28] = system: Linaria genistifolia subsp. dalmatica; test: Phytotoxicity in Linaria genistifolia subsp. dalmatica assessed as increase in mortality at 250 ug/mL measured on day 14 relative to untreated control; type: functional, organism-based
Triticum aestivum [29] = test: Phytotoxicity in Triticum aestivum (wheat) assessed as increase in mortality at 250 ug/mL measured on day 14 relative to untreated control; type: functional, organism-based
Centaurea diffusa [30] = test: Phytotoxicity in Centaurea diffusa assessed as increase in mortality at 250 ug/mL measured on day 14 relative to untreated control; type: functional, organism-based

SMILES	inhibition (Centaurea diffusa [1])	inhibition (Bassia scoparia [2])	inhibition [3]	inhibition (Bassia scoparia [4])	inhibition (Bassia scoparia [5])	inhibition (Centaurea diffusa [6])	inhibition (Centaurea maculosa [7])	inhibition (Centaurea maculosa [8])	inhibition [9]	inhibition (Centaurea diffusa [10])	inhibition [11]	inhibition (Centaurea maculosa [12])	inhibition (INH) (Triticum aestivum [13])	other results
O=c1c(O)c(-c2ccc(O)c(O)c2)oc2cc(O)cc(O)c12 [QUERCETIN]	inactive	inactive	inactive	inactive	inactive	inactive	inactive	inactive	inactive	inactive	inactive	inactive	Non-toxic	–
Oc1cc(O)c2c(c1)O[C@@H](c1ccc(O)c(O)c1)[C@H](O)C2 [(-)-CATECHIN]	–	–	–	–	–	–	–	–	–	–	–	–	–	inhibition [14]: Active; inhibition (Centaurea diffusa [15]): Active; inhibition (Bassia scoparia [16]): Active; inhibition (Centaurea maculosa [17]): inactive; inhibition [18]: Active; inhibition (Triticum aestivum [19]): Active; inhibition (Bassia scoparia [20]): Active; inhibition (INH) (Solanum lycopersicum [21]): Toxic; inhibition (Triticum aestivum [22]): Active; inhibition (Centaurea maculosa [23]): inactive; inhibition (Centaurea diffusa [24]): Active
O=C1C[C@@H](c2ccc(O)cc2)Oc2cc(O)cc(O)c21 [NARINGENIN]	inactive	inactive	inactive	inactive	inactive	inactive	inactive	inactive	inactive	inactive	inactive	inactive	Non-toxic	–
Oc1cc(O)c2c(c1)O[C@@H](c1ccc(O)c(O)c1)[C@@H](O)C2 [(+)-EPICATECHIN]	Active	Active	Active	Active	Active	Active	Active	Active	Active	Active	Active	Active	Toxic	–
O=C1c2c(O)cc(O)cc2OC(c2ccc(O)c(O)c2)C1O (racemic) [TAXIFOLIN]	–	Active	–	–	–	–	–	inactive	Active	Active	–	–	Toxic	inhibition (Centaurea maculosa [25]): inactive; inhibition (INH) (Solanum lycopersicum [26]): Toxic; inhibition (INH) (Arabidopsis thaliana): Toxic; inhibition (Bassia scoparia [27]): Active; inhibition [28]: Active; inhibition (Triticum aestivum [29]): Active; inhibition (Centaurea diffusa [30]): Active
O=c1c(O)c(-c2ccc(O)cc2)oc2cc(O)cc(O)c12 [KAEMPFEROL]	–	Active	–	–	–	–	–	inactive	Active	Active	–	–	Toxic	inhibition (Centaurea maculosa [25]): inactive; inhibition (INH) (Solanum lycopersicum [26]): Toxic; inhibition (INH) (Arabidopsis thaliana): Toxic; inhibition (Bassia scoparia [27]): Active; inhibition [28]: Active; inhibition (Triticum aestivum [29]): Active; inhibition (Centaurea diffusa [30]): Active
Oc1cc(O)c2c(c1)O[C@H](c1ccc(O)c(O)c1)[C@H](O)C2 [(-)-EPICATECHIN]	inactive	inactive	inactive	inactive	inactive	inactive	inactive	inactive	inactive	inactive	inactive	inactive	Non-toxic	–
